Values joined by “and” are separate entries in the source; they are usually repeats but may differ in a detail not shown here. Equal values may be shown once. No end group written: not given here.
Tested on: HLA-A*0201 positive patients with NSCLC expressing TERT
Experiment: Vx-001-201 randomized double blind phase IIb clinical trial (OS, TTF, 12 months survival)
Type: in vivo, human
Excerpt: The Vx-001-201 study is a randomized, double blind multicenter study done in 70 centers in France, Germany, Spain, Italy, Greece, Poland, Romania and Czech Republic. Key eligibility criteria were a) non small cell lung cancer (NSCLC), b) stage IV or recurrent stage I-III, c) disease control after platinum based first line chemotherapy according to RECIST 1.1 criteria, d) HLA-A*0201 positivity, e) tumors expressing TElomerase Reverse Transcriptase (TERT), f) ECOG 0 or 1 g) absence of brain metastasis.
a) Principal endpoint: overall survival (OS) measured from randomization
b) Secondary endpoints: • Time to Treatment Failure (TTF) measured from randomization • OS at 12 months
Patients who fulfilled all inclusion criteria were randomized within 4 weeks after the end of first line chemotherapy.
The vaccination protocol consisted in six vaccinations at three weeks interval. The optimized Vx-001/TERT572Y was used in the first two vaccinations and the native Vx-001/TERT572 in the following four vaccinations. Patients who continued controlling their disease after the sixth vaccination received boost vaccination with the Vx-001/TERT572 every three months. Vaccination was stopped at disease progression (FIG. 1).
The primary and secondary endpoints were analysed in the Full Analysis Set composed of all patients who fulfilled the […] five main criteria a) NSCLC, b) stage IV or recurrent stage I-III, and c) disease control after first line chemotherapy, d) HLA-A*0201 positivity and e) TERT expressing tumors.
We used the Kaplan-Meier method to estimate OS and TTF in each arm and a Cox proportional hazards regression model to estimate Hazard Ratio (HR) relating OS and TTF to the treatment effect.

[1] = FAS patients, all, Vx-001 vs placebo
[2] = FAS, 1st line chemotherapy CARBO (n = 119), Vx-001 arm
[3] = FAS, 1st line chemotherapy CDDP (n = 69), Vx-001 arm
[4] = FAS, Current smoker (n = 50), including light-smoker (≤25 years) (n = 5), Vx-001 arm
[5] = FAS, Female (n = 59), Vx-001 arm
[6] = FAS, Male (n = 131), Vx-001 arm
[7] = FAS, NS + Former smokers (<30 years)(n = 61), Vx-001 arm
[8] = FAS, NS + Former smokers (≤20 years)(n = 47), Vx-001 arm
[9] = FAS, Never smokers (NS) (n = 25), Vx-001 arm
[10] = FAS, age <65 years (n = 92), Vx-001 arm
[11] = FAS, age >65 years (n = 98), Vx-001 arm
[12] = FAS, response to chemotherapy OR (n = 87), Vx-001 arm
[13] = FAS, response to chemotherapy SD (n = 103), Vx-001 arm
[14] = FAS, sub-group NSQ (n = 118), Vx-001 arm
[15] = FAS, sub-group SQ (n = 72), Vx-001 arm
[16] = NS + Former smokers (≤25 years), all (n = 55), Vx-001 arm
[17] = never-smokers and light-smokers (≤25 years, stopped or not), <65 y (n = 28), Vx-001 arm
[18] = never-smokers and light-smokers (≤25 years, stopped or not), >65 y (n = 32), Vx-001 arm
[19] = never-smokers and light-smokers (≤25 years, stopped or not), All (n = 60), Vx-001 arm
[20] = never-smokers and light-smokers (≤25 years, stopped or not), ECOG 0 (n = 28), Vx-001 arm
[21] = never-smokers and light-smokers (≤25 years, stopped or not), ECOG 1 (n = 32), Vx-001 arm
[22] = never-smokers and light-smokers (≤25 years, stopped or not), Female (n = 25), Vx-001 arm
[23] = never-smokers and light-smokers (≤25 years, stopped or not), Male (n = 35), Vx-001 arm
[24] = never-smokers and light-smokers (≤25 years, stopped or not), NSQ (n = 46), Vx-001 arm

“Vx-001: vaccine composed of two nine-amino-acid peptides, TERT572 (SEQ ID No: 1) and TERT572Y (SEQ ID No: 2), administered separately with adjuvant Montanide ISA51 VG (chain 1 RLFFYRKSV; chain 2 YLFFYRKSV; not fully specified)” was tested, and the 12 months survival (FAS patients, all, Vx-001 arm) was 58%, the “OS (median)” value (FAS patients, all, Vx-001 arm) was 14.3 months and the “TTF (median)” value (FAS patients, all, Vx-001 arm) was 3.6 months. The “HR (OS)” value [1] was 0.97, the “HR (TTF)” value [1] was 0.88 and the “12 months OS (%)” value [2] was 58.2%. The “Median survival (months)” value [2] was 14.3 months, the “HR (OS)” value (FAS, 1st line chemotherapy CARBO (n = 119), Vx-001 vs placebo) was 1.06 and the “12 months OS (%)” value [3] was 59%. For the same substance, the “Median survival (months)” value [3] was 15 months, the “HR (OS)” value (FAS, 1st line chemotherapy CDDP (n = 69), Vx-001 vs placebo) was 0.81 and the “12 months OS (%)” value [4] was 37.5%. The “Median survival (months)” value [4] was 9 months, the “HR (OS)” value (FAS, Current smoker (n = 50), including light-smoker (≤25 years) (n = 5), Vx-001 vs placebo) was 1.39 and the “12 months OS (%)” value [5] was 53.3%. The “Median survival (months)” value [5] was 13.2 months, the “HR (OS)” value (FAS, Female (n = 59), Vx-001 vs placebo) was 1.52 and the “12 months OS (%)” value [6] was 61%. For the same substance, the “Median survival (months)” value [6] was 15 months, the “HR (OS)” value (FAS, Male (n = 131), Vx-001 vs placebo) was 0.81 and the “12 months OS (%)” value [7] was 69%. The “Median survival (months)” value [7] was 16.2 months, the “HR (OS)” value (FAS, NS + Former smokers (<30 years)(n = 61), Vx-001 vs placebo) was 0.67 and the “12 months OS (%)” value [8] was 72.7%. For the same substance, the “Median survival (months)” value [8] was 15.3 months, the “HR (OS)” value (FAS, NS + Former smokers (≤20 years)(n = 47), Vx-001 vs placebo) was 0.67 and the “12 months OS (%)” value [9] was 70%. The “Median survival (months)” value [9] was 14.1 months, the “HR (OS)” value (FAS, Never smokers (NS) (n = 25), Vx-001 vs placebo) was 0.76 and the “12 months OS (%)” value [10] was 57.7%. The “Median survival (months)” value [10] was 13.4 months, the “HR (OS)” value (FAS, age <65 years (n = 92), Vx-001 vs placebo) was 1.2 and the “12 months OS (%)” value [11] was 59%. The “Median survival (months)” value [11] was 15 months, the “HR (OS)” value (FAS, age >65 years (n = 98), Vx-001 vs placebo) was 0.78 and the “12 months OS (%)” value [12] was 69%. The “Median survival (months)” value [12] was 15.3 months, the “HR (OS)” value (FAS, response to chemotherapy OR (n = 87), Vx-001 vs placebo) was 0.89 and the “12 months OS (%)” value [13] was 52%. For the same substance, the “Median survival (months)” value [13] was 14.3 months, the “HR (OS)” value (FAS, response to chemotherapy SD (n = 103), Vx-001 vs placebo) was 0.99 and the “12 months OS (%)” value [14] was 55%. For the same substance, the “Median survival (months)” value [14] was 13.4 months, the “HR (OS)” value (FAS, sub-group NSQ (n = 118), Vx-001 vs placebo) was 0.88 and the “12 months OS (%)” value [15] was 64%. For the same substance, the “Median survival (months)” value [15] was 14.3 months, the “HR (OS)” value (FAS, sub-group SQ (n = 72), Vx-001 vs placebo) was 1.13 and the “12 months OS (%)” value [16] was 73% and 73.1%. The “Median survival (months)” value [16] was 16.2 months, the “12 months OS” value [17] was 76.9% and the “OS (months)” value [17] was 20.2 months. The “HR (OS)” value (never-smokers and light-smokers (≤25 years, stopped or not), <65 y (n = 28), Vx-001 vs placebo) was 0.50, the “12 months OS” value [18] was 64.3% and the “OS (months)” value [18] was 15.3 months. For the same substance, the “HR (OS)” value (never-smokers and light-smokers (≤25 years, stopped or not), >65 y (n = 32), Vx-001 vs placebo) was 0.62, the “12 months OS” value [19] was 70.4% and the “OS (months)” value [19] was 20.2 months. For the same substance, the “HR (OS)” value (never-smokers and light-smokers (≤25 years, stopped or not), All (n = 60), Vx-001 vs placebo) was 0.55, the “12 months OS” value [20] was 66.7% and the “OS (months)” value [20] was 24.7 months. The “HR (OS)” value (never-smokers and light-smokers (≤25 years, stopped or not), ECOG 0 (n = 28), Vx-001 vs placebo) was 0.52, the “12 months OS” value [21] was 73.3% and the “OS (months)” value [21] was 15.3 months. The “HR (OS)” value (never-smokers and light-smokers (≤25 years, stopped or not), ECOG 1 (n = 32), Vx-001 vs placebo) was 0.49, the “12 months OS” value [22] was 61.5% and the “OS (months)” value [22] was 15.3 months. The “HR (OS)” value (never-smokers and light-smokers (≤25 years, stopped or not), Female (n = 25), Vx-001 vs placebo) was 0.95, the “12 months OS” value [23] was 78.6% and the “OS (months)” value [23] was 24.7 months. The “HR (OS)” value (never-smokers and light-smokers (≤25 years, stopped or not), Male (n = 35), Vx-001 vs placebo) was 0.34, the “12 months OS” value [24] was 70.0% and the “OS (months)” value [24] was 20.2 months. The “HR (OS)” value (never-smokers and light-smokers (≤25 years, stopped or not), NSQ (n = 46), Vx-001 vs placebo) was 0.50 and the “12 months OS” value (never-smokers and light-smokers (≤25 years, stopped or not), SQ (n = 14), Vx-001 arm) was 71.4%.
